How the values were obtained:
Carboplatin = compound: C1CC(C1)(C(=O)[O-])C(=O)[O-].N.N.[Pt+2] [Carboplatin]; conditions: max 10 µM
How it was run: (§1)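 Following 24 hours at 37°C and 5% CO2, cancer cell lines in 1536-well plates with 7.5 μl DMEM/F12 or RPMI and 10% FBS were dosed for 72 hours, final DMSO typically being 0.2%. CellTiter-Glo 2.0 luminescence, scaled between blank-well and DMSO-well means, gave the viability readout. Dose responses were fitted to a two-parameter logistic curve with a non-linear mixed effects model, and the single-agent IC50 was derived from this fit.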

AZD5363 = compound: C1CN(CCC1(C(=O)N[C@@H](CCO)C2=CC=C(C=C2)Cl)N)C3=NC=NC4=C3C=CN4 [AZD5363]; conditions: max 10 µM
How it was run: as §1

AZD1775 = compound: C=CCn1c(=O)c2cnc(Nc3ccc(N4CCN(C)CC4)cc3)nc2n1-c1cccc(C(C)(C)O)n1 [AZD1775]
How it was run: as §1

Trametinib = compound: CC(=O)Nc1cccc(-n2c(=O)n(C3CC3)c(=O)c3c(Nc4ccc(I)cc4F)n(C)c(=O)c(C)c32)c1 [Trametinib]; conditions: max 1 µM
How it was run: as §1

Paclitaxel = compound: CC(=O)O[C@H]1C(=O)[C@@]2(C)[C@H]([C@H](OC(=O)c3ccccc3)[C@]3(O)C[C@H](OC(=O)[C@H](O)[C@@H](NC(=O)c4ccccc4)c4ccccc4)C(C)=C1C3(C)C)[C@]1(OC(C)=O)CO[C@@H]1C[C@@H]2O [Paclitaxel]; conditions: max 3 µM
How it was run: as §1

Palbociclib = compound: CC(=O)c1c(C)c2cnc(Nc3ccc(N4CCNCC4)cn3)nc2n(C2CCCC2)c1=O [Palbociclib]; conditions: max 10 µM
How it was run: as §1

AZD1390 = compound: CC(C)n1c(=O)n(C)c2cnc3cc(F)c(-c4ccc(OCCCN5CCCCC5)nc4)cc3c21 [AZD1390]; conditions: max 0.3 µM
How it was run: as §1

Venetoclax = compound: CC1(C)CCC(CN2CCN(c3ccc(C(=O)NS(=O)(=O)c4ccc(NCC5CCOCC5)c([N+](=O)[O-])c4)c(Oc4cnc5[nH]ccc5c4)c3)CC2)=C(c2ccc(Cl)cc2)C1 [Venetoclax]; conditions: max 1 µM
How it was run: as §1

Dasatinib = compound: CC1=C(C(=CC=C1)Cl)NC(=O)C2=CN=C(S2)NC3=CC(=NC(=N3)C)N4CCN(CC4)CCO [Dasatinib]; conditions: max 2 µM
How it was run: as §1

SG3199 = compound: CC1=CN2[C@@H](C1)C=NC3=CC(=C(C=C3C2=O)OC)OCCCCCOC4=C(C=C5C(=C4)N=C[C@@H]6CC(=CN6C5=O)C)OC [SG3199]; conditions: max 0.001 µM
How it was run: as §1

AZD2811 = compound: CCN(CCO)CCCOc1ccc2c(Nc3cc(CC(=O)Nc4cccc(F)c4)[nH]n3)ncnc2c1 [AZD2811]; conditions: max 1 µM
How it was run: as §1

SN-38 = compound: CCc1c2c(nc3ccc(O)cc13)-c1cc3c(c(=O)n1C2)COC(=O)[C@]3(O)CC [SN-38]; conditions: max 0.3 µM
How it was run: as §1

AZD0156 = compound: CN(C)CCCOc1ccc(-c2ccc3ncc4c(c3c2)n(C2CCOCC2)c(=O)n4C)cn1 [AZD0156]
How it was run: as §1

AZD4320 = compound: CN(CC[C@H](CSC1=CC=CC=C1)NC2=C(C=C(C=C2)S(=O)(=O)NC(=O)C3=CC=C(C=C3)N4CCC(CC4)[C@H](C5=CC=CC=C5C6=CC=C(C=C6)Cl)O)S(=O)(=O)C(F)(F)F)CCO [AZD4320]; conditions: max 1 µM
How it was run: as §1

Alisertib = compound: COc1cc(Nc2ncc3c(n2)-c2ccc(Cl)cc2C(c2c(F)cccc2OC)=NC3)ccc1C(=O)O [Alisertib]; conditions: max 10 µM
How it was run: as §1

Etoposide = compound: COc1cc([C@@H]2c3cc4c(cc3[C@@H](O[C@@H]3O[C@@H]5CO[C@@H](C)O[C@H]5[C@H](O)[C@H]3O)[C@H]3COC(=O)[C@H]23)OCO4)cc(OC)c1O [Etoposide]; conditions: max 10 µM
How it was run: as §1

Gefitinib = compound: COc1cc2ncnc(Nc3ccc(F)c(Cl)c3)c2cc1OCCCN1CCOCC1 [Gefitinib]; conditions: max 10 µM
How it was run: as §1

Prexasertib = compound: COc1cccc(OCCCN)c1-c1cc(Nc2cnc(C#N)cn2)n[nH]1 [Prexasertib]; conditions: max 1 µM
How it was run: as §1

Doxorubicin = compound: COc1cccc2c1C(=O)c1c(O)c3c(c(O)c1C2=O)C[C@@](O)(C(=O)CO)C[C@@H]3O[C@H]1C[C@H](N)[C@H](O)[C@H](C)O1 [Doxorubicin]; conditions: max 1 µM
How it was run: as §1

AZD5153 = compound: COc1nnc2ccc(N3CCC(c4ccc(OCCN5CCN(C)C(=O)[C@H]5C)cc4)CC3)nn12 [AZD5153]; conditions: max 1 µM
How it was run: as §1

Lapatinib = compound: CS(=O)(=O)CCNCc1ccc(-c2ccc3ncnc(Nc4ccc(OCc5cccc(F)c5)c(Cl)c4)c3c2)o1 [Lapatinib]; conditions: max 10 µM
How it was run: as §1

AZD8186 = compound: C[C@@H](Nc1cc(F)cc(F)c1)c1cc(C(=O)N(C)C)cc2c(=O)cc(N3CCOCC3)oc12 [AZD8186]
How it was run: as §1

Crizotinib = compound: C[C@@H](Oc1cc(-c2cnn(C3CCNCC3)c2)cnc1N)c1c(Cl)ccc(F)c1Cl [Crizotinib]; conditions: max 10 µM
How it was run: as §1

Savolitinib = compound: C[C@@H](c1ccc2nccn2c1)n1nnc2ncc(-c3cnn(C)c3)nc21 [Savolitinib]; conditions: max 1 µM
How it was run: as §1

AZD6738 = compound: C[C@@H]1COCCN1C2=NC(=NC(=C2)C3(CC3)[S@](=N)(=O)C)C4=C5C=CNC5=NC=C4 [AZD6738]; conditions: max 10 µM
How it was run: as §1

AZD5991 = compound: Cc1c2c(nn1C)CSCc1cc(n(C)n1)CSc1cc(c3ccccc3c1)OCCCc1c(C(=O)O)n(C)c3c-2c(Cl)ccc13 [AZD5991]; conditions: max 1 µM
How it was run: as §1

AZD7648 = compound: Cc1cc2ncnn2cc1Nc1ncc2c(n1)n(C1CCOCC1)c(=O)n2C [AZD7648]; conditions: max 10 µM
How it was run: as §1

Taselisib = compound: Cc1nc(-c2cn3c(n2)-c2ccc(-c4cnn(C(C)(C)C(N)=O)c4)cc2OCC3)n(C(C)C)n1 [Taselisib]; conditions: max 10 µM
How it was run: as §1

Selumetinib = compound: Cn1cnc2c(F)c(Nc3ccc(Br)cc3Cl)c(C(=O)NOCCO)cc21 [Selumetinib]; conditions: max 10 µM
How it was run: as §1

SRA737 = compound: N#Cc1cnc(Nc2cc(NC[C@H]3CNCCO3)c(C(F)(F)F)cn2)cn1 [SRA737]; conditions: max 10 µM
How it was run: as §1

MK-2206 = compound: NC1(c2ccc(-c3nc4ccn5c(=O)[nH]nc5c4cc3-c3ccccc3)cc2)CCC1 [MK-2206]; conditions: max 10 µM
How it was run: as §1

Gemcitabine = compound: Nc1ccn([C@@H]2O[C@H](CO)[C@@H](O)C2(F)F)c(=O)n1 [Gemcitabine]; conditions: max 0.3 µM
How it was run: as §1

[1] = compound: O=C(Nc1ccc2[nH]nc(-c3ccncc3)c2c1)[C@@H]1CCN(CC(=O)N2CCN(c3ccc(-c4ncccn4)cc3)CC2)C1; conditions: max 5 µM
How it was run: as §1

Olaparib = compound: O=C(c1cc(Cc2n[nH]c(=O)c3ccccc23)ccc1F)N1CCN(C(=O)C2CC2)CC1 [Olaparib]; conditions: max 10 µM
How it was run: as §1

5-Fluorouracil = compound: O=c1[nH]cc(F)c(=O)[nH]1 [5-Fluorouracil]; conditions: max 20 µM
How it was run: as §1

Capivasertib = compound: C1CN(CCC1(C(=O)N[C@@H](CCO)C2=CC=C(C=C2)Cl)N)C3=NC=NC4=C3C=CN4 [Capivasertib]; conditions: max 10 µM
How it was run: as §1

| Cell Line | IC50, cell viability 72 h (Carboplatin) [nM] | IC50, cell viability 72 h (AZD5363) [nM] | IC50, cell viability 72 h (AZD1775; max 3 µM) [nM] | IC50, cell viability 72 h (Trametinib) [nM] | IC50, cell viability 72 h (Paclitaxel) [nM] | IC50, cell viability 72 h (Palbociclib) [nM] | IC50, cell viability 72 h (AZD1390) [nM] | IC50, cell viability 72 h (Venetoclax) [nM] | IC50, cell viability 72 h (Dasatinib) [nM] | IC50, cell viability 72 h (SG3199) [nM] | IC50, cell viability 72 h (AZD2811) [nM] | IC50, cell viability 72 h (SN-38) [nM] | IC50, cell viability 72 h (AZD0156; max 3 µM) [nM] | IC50, cell viability 72 h (AZD4320) [nM] | IC50, cell viability 72 h (Alisertib) [nM] | IC50, cell viability 72 h (Etoposide) [nM] | IC50, cell viability 72 h (Gefitinib) [nM] | IC50, cell viability 72 h (Prexasertib) [nM] | IC50, cell viability 72 h (Doxorubicin) [nM] | IC50, cell viability 72 h (AZD5153) [nM] | IC50, cell viability 72 h (Lapatinib) [nM] | IC50, cell viability 72 h (AZD8186; max 10 µM) [nM] | IC50, cell viability 72 h (Crizotinib) [nM] | IC50, cell viability 72 h (Savolitinib) [nM] | IC50, cell viability 72 h (AZD6738) [nM] | IC50, cell viability 72 h (AZD5991) [nM] | IC50, cell viability 72 h (AZD7648) [nM] | IC50, cell viability 72 h (Taselisib) [nM] | IC50, cell viability 72 h (Selumetinib) [nM] | IC50, cell viability 72 h (SRA737) [nM] | IC50, cell viability 72 h (MK-2206) [nM] | IC50, cell viability 72 h (Gemcitabine) [nM] | IC50, cell viability 72 h [1] [nM] | IC50, cell viability 72 h (Olaparib) [nM] | IC50, cell viability 72 h (5-Fluorouracil) [nM] | IC50, cell viability 72 h (Capivasertib) [nM] | IC50, cell viability 72 h (AZD1775; max 1 µM) [nM] | IC50, cell viability 72 h (AZD0156; max 1 µM) [nM] | IC50, cell viability 72 h (AZD8186; max 3 µM) [nM] |
| --- | --- | --- | --- | --- | --- | --- | --- | --- | --- | --- | --- | --- | --- | --- | --- | --- | --- | --- | --- | --- | --- | --- | --- | --- | --- | --- | --- | --- | --- | --- | --- | --- | --- | --- | --- | --- | --- | --- | --- |
| WM1552C (Melanoma) | > 10000 | > 10000 | 1760 | 158 | 51.5 | > 10000 | > 300 | > 1000 | 1810 | > 1 | > 1000 | 152 | > 3000 | > 1000 | 7480 | > 10000 | > 10000 | 34.4 | > 1000 | > 1000 | > 10000 | > 10000 | 6260 | > 1000 | > 10000 | 759 | > 10000 | 8740 | 7990 | 6180 | > 10000 | 52.2 | > 5000 | > 10000 | > 20000 | – | – | – | – |
| SK-HEP-1 (Hepatocellular Carcinoma) | > 10000 | > 10000 | > 3000 | > 1000 | 45.4 | 9050 | > 300 | > 1000 | > 2000 | > 1 | > 1000 | 83.5 | > 3000 | > 1000 | > 10000 | 7400 | > 10000 | > 1000 | 698 | > 1000 | > 10000 | > 10000 | > 10000 | > 1000 | > 10000 | > 1000 | > 10000 | > 10000 | > 10000 | > 10000 | 6200 | > 300 | > 5000 | > 10000 | > 20000 | – | – | – | – |
| NB13 (Neuroblastoma) | > 10000 | – | – | > 1000 | – | > 10000 | > 300 | > 1000 | > 2000 | > 1 | > 1000 | 13.7 | – | 139 | 244 | 2430 | > 10000 | 15.9 | 194 | 953 | > 10000 | – | 3970 | > 1000 | 2220 | > 1000 | > 10000 | > 10000 | > 10000 | 3640 | > 10000 | > 300 | > 5000 | > 10000 | > 20000 | > 10000 | 322 | > 1000 | > 3000 |
| UACC-812 (Breast Carcinoma) | > 10000 | > 10000 | > 3000 | > 1000 | 1920 | > 10000 | > 300 | > 1000 | > 2000 | > 1 | > 1000 | > 300 | > 3000 | > 1000 | > 10000 | 9330 | > 10000 | 851 | > 1000 | > 1000 | 7470 | > 10000 | > 10000 | > 1000 | > 10000 | > 1000 | > 10000 | > 10000 | > 10000 | > 10000 | – | > 300 | > 5000 | > 10000 | > 20000 | – | – | – | – |
| DMS-53 (Small Cell Lung Carcinoma) | – | – | > 3000 | > 1000 | – | > 10000 | > 300 | > 1000 | > 2000 | > 1 | > 1000 | 37 | > 3000 | 174 | > 10000 | – | > 10000 | > 1000 | > 1000 | > 1000 | > 10000 | – | > 10000 | > 1000 | > 10000 | > 1000 | > 10000 | > 10000 | > 10000 | – | > 10000 | – | – | > 10000 | – | > 10000 | – | – | > 3000 |
